Assay results: US7648964B2, “Use of lacritin in promoting ocular cell survival” (University of Virginia Patent Foundation, priority 2004, dated 2010)
Entries after “also recorded” stand apart in the source; their conditions may differ.

Legend:
[1] = test system: PKCα; assay: PKCα translocation in HSG cells (immunofluorescence, fractionation); format: cell-based, human; details: for effect on lacritin-dependent PKCα translocation: pertussis toxin 100 ng/ml, Go 6976, U73122, U73343, cyclosporine 1 μM, nifedipine 10 μM
From the text: In order to dissect the molecular pathways leading to the cell survival by lacritin, protein kinases and transcriptional factors were studied by Western blotting and immunofluorescence microscopy.
Images were acquired at 2-3 s intervals using LaserSharp2000 software (Bio-Rad) and store on disc for later analysis.

[2] = test system: PKCα; assay: Phospho-PKCα blot of HSG cell lysates; format: cell-based, human; details: for effect on lacritin-dependent PKCα dephosphorylation: pertussis toxin 100 ng/ml, Go 6976, U73122, U73343 1 μM
Protocol: (§1) For phosphotyrosine blotting and mitogenesis assays, cells in serum-containing media were seeded overnight in 24-well plates at a density of 0.5×10^5 cells/mm^2 corresponding to 20-30% confluency after cell attachment, incubated in serum-free media without supplements for 24 h (phosphotyrosine) or washed with serum-free media without supplements three times (mitogenesis) and incubated with lacritin (1-1000 nM), or positive controls EGF (1.6 nM) and 10% fetal bovine serum, or negative controls bovine serum albumin or no additive in serum-free media without supplements for the indicated times (phosphotyrosine) or 30 h (mitogenesis). For phosphotyrosine assays, cells were extracted in 1% NP40 containing sodium vanadate (2 mg/ml), DTT (5 mg/ml), protease inhibitors, 50 mM HEPES, 100 mM NaCl, and 2 mM EDTA; then separated by 10% SDS PAGE, transferred and blotted. The following antibodies (Cell Signaling Technology, Beverly Mass.) were tested: antiphosphotyrosine antibody (P-Tyr-100), anti-phospho-PKC αβII, anti-PKCα, anti-phospho-PKCδ, anti-phospho-PKC (pan), anti-p44/42 MAPK, anti-phospho-Raf, anti-phospho-SAPK/JNK, anti-phospho-p38 Map kinase, anti-phospho-Raf, anti-phospho-Akt, anti-phospho-CaMKII, anti-phospho-MARCKS, or anti-tubulin (loading control). After washing, bound antibodies were detected with peroxidase-labeled secondary antibody and ECL. With the exception of at least nine proteins in the P-Tyr-100 blot (FIG. 1), none of the effectors tested above appeared to be phospho-activated during lacritin signaling (not shown). For mitogenesis (Hussaini et al., '00), [^3H]-thymidine (2 mCi/ml) was added for the next 6 h. Incorporation was stopped with ice-cold phosphate buffered saline and followed by addition of cold and then room temperature trichloracetic acid (10%) for 10 min each, washing of cells with phosphate buffered saline, solubilization with 1 N sodium hydroxide, neutralization with 1 N hydrochloric acid, addition of scintillation fluid and then quantitation in a scintillation counter. To deplete PKCα in HSG cells, a pool of four PKCα-specific siRNAs (100 nM) were transfected via LipofectAMINE 2000 in Opti-MEMI Reduced Serum Medium (Invitrogen, Grand Island N.Y.) without serum and antibiotics according to manufacturer's instructions. Each of the four siRNAs was also individually transfected. In negative controls, cells were transfected with a pool of four lamin-specific siRNAs (Upstate LLC, Charlottesville Va.; Dharmacon Inc, Lafayette Colo.). Seventy-two hours post-transfection, mitogenesis was assessed by co-addition of 10 […] lacritin and [^3H]-thymidine (2 mCi/ml) (Amersham, Piscataway N.J.) for 24 hrs. PKCα depletion was confirmed by Western blotting.
We imaged PKCα in cells 15 min after treatment (FIG. 8). Nonmitogenic construct/fragment C-25 (10 nM) had no effect, leaving PKCa diffusely distributed throughout the cytoplasm. […] The phosphorylation state of PKCα influences its translocation site. Hyperphosphorylated PKCα becomes associated with the plasma membrane whereas hypophosphorylated or dephosphorylated PKCα is known to translocate to the perinuclear Golgi region. To determine if the latter is true and if so over what time course, we treated cells with lacritin, N-24 and C-25, and then blotted cell lysates for phospho-PKC ? (FIG. 8B). 10 nM lacritin promotes PKC ? dephosphorylation within 1 min of addition. This form is sustained for at least 15 min, but by 30 min has returned to baseline phosphorylation. Dephosphorylation triggered by increasing molar levels of lacritin or N-24 mirrored the proliferation response with optimal dephosphorylation at 10 nM. Non-mitogenic C-25 had no effect, whereas positive control 4β-phorbol 12-myristate 13-acetate-promoted hyperphosphorylation.

[3] = test system: NFATC1; assay: NFATC1 translocation in HSG cells (immunofluorescence); format: cell-based, human; details: cyclosporine 1 μM; nifedipine 10 μM
From the text: In order to dissect the molecular pathways leading to the cell survival by lacritin, protein kinases and transcriptional factors were studied by Western blotting and immunofluorescence microscopy. […] On the other hand, there were increased activities of transcriptional factors such as nuclear factor of activated T-cells (NFAT) and NF-kappaB. In FIG. 4, translocation of PKC alpha and NFAT was detected by immunofluorescence coupled with confocal microscopic imaging. In resting HSG cells (left three images), PKC alpha distributes mainly in cytosol and membrane. Similarly, NFATc1 was also found to localize largely in cytosol. Cellular co-location of PKC alpha and NFATc1 is apparent upon merging the two immunofluorescent images, as the merged cy3 and FITC labels produce distinctive yellow color.
Images were acquired at 2-3 s intervals using LaserSharp2000 software (Bio-Rad) and store on disc for later analysis. For translocation assays, HSG cells […] phorbol 12-myristate 13-acetate, […], then washed with phosphate-buffered saline, formaldehyde-fixed, blocked with phosphate-buffered saline containing 1% bovine serum albumin and 10% goat serum, incubated with anti-PKCα (C-20) or anti-NFATC1 (mab 7A6) (both from Santa Cruz Biotechnology Inc.; Santa Cruz, Calif.) followed by secondary Cy3-, FITC- or Alexa488-labeled antibodies and confocal microscopic visualization (Bio-Rad Radiance2100).

[4] = test system: HSG cells; assay: Calcium mobilization imaging in HSG cells (Fluo-4); format: cell-based, human; details: for effect on lacritin-stimulated calcium mobilization: preincubation: pertussis toxin 100 ng/ml, or siRNA
Protocol: Cells were seeded at 1.4×10^4 HSG cells/mm^2 or 0.7×10^4 HSG cells/mm^2 on Matrigel-coated (100 μg/ml; BD Biosciences; San Diego Calif.) coverslips to respectively achieve 70-80% confluency after overnight or 48 h growth in 6-well plates containing phenol red-free Dulbecco's modified Eagle's medium with 10% fetal calf serum.
Other cells were incubated (0.7×10^4HSG cells/mm^2 overnight plating) with 100 ng/ml pertussis toxin (Calbiochem; San Diego Calif.) in phenol red-free Dulbecco's modified Eagle's medium with 10% fetal calf serum; or vehicle alone). Cells were washed with calcium-free/phenol red-free Hanks basic salt solution, 20 mM N-2-hydroxyethylpiperazine-N′-2-ethane sulfonic acid and then incubated for 1 h at room temperature with the same solution containing fluo-4 μM at 4 μM (FluoroPure grade [Molecular Probes; Eugene Oreg.] dissolved in DMSO plus 20% Pluronic F-127). Cells were washed three times for 60 min at room temperature with calcium-free/phenol red-free Hanks basic salt solution with 5 mM Ca^2+ or 5 mM EGTA. Temperature was stabilized for 5 min at 37° C. coverslips were placed on the stage of a TE-200 epifluorescent microscope (Bio-Rad Radiance2100 confocal/multiphoton system using Plan Fluor 60×NA 1.4 Oil IR objective lens [Bio-Rad, Hercules Calif.] as part of the W. M. Keck Center for Cellular Imaging, University of Virginia), subjected to a 488 nm argon laser light source with emission at 528 nm. Baseline monitoring was followed by addition of lacritin or deletion fragments in phenol red-free Hanks basic salt solution.

[5] = test system: human salivary ductal (HSG) cells; assay: 3H-thymidine uptake mitogenesis assay; format: cell-based; details: 10 nM; compared to intact lacritin
Protocol: as §1

[6] = test system: caspase-9; assay: Caspase-9 activity in human corneal epithelial cells treated with TNF-α; format: cell-based
Protocol: FIG. 13 graphically illustrates the ability of lacritin polypeptides (10 nM) to block TNFα induced caspase-9 activity in human corneal epithelial cells. The ordinate represents relative fluorescence units. White bars indicate 6 hours and diagonally-hatched bars indicate 9 hours.
Caspase-9 activity was measured in cells treated with various combinations of TNF-α, fragments of lacritin, and the PKC inhibitor Go6976. […] The PKC-α inhibitor Go6976 and C-25 fail to block this increase of the downstream initiator caspase-9.

[7] = test system: human corneal epithelial (HCE) cell line; assay: TNF-α-induced cell death in HCE cells (MTT cell viability); format: cell-based
Protocol: (§2) Lacritin-induced proliferation and calcium signaling was studied in the human corneal epithelial (HCE) cell line. HCE cells were grown at 37° C. in DMEM F/12 supplemented with 10% FBS and 50 μg/ml gentamicin. Each experiment was done in a dose- and time-dependent manner using TNF-α (5-20 ng/ml) and lacritin (1-10 nM). Cell viability was measured spectrophotometrically at an absorbance of 570 nm using the MTT assay. Caspase-8 activity was detected fluorometrically by measuring cleavage of the fluorogenic substrate IETD-pNA at an excitation wavelength of 405 nm. Lacritin-induced cell proliferation was studied by H3-thymidine incorporation and via fluorescence-based detection of PKC, PLC and cAMP. Calcium signaling was detected by confocal microscopy of Fluo-4 loaded cells.

[8] = test system: caspase-8; assay: Caspase-8 activity in human corneal epithelial cells treated with TNF-α; format: cell-based
Protocol: FIG. 12 graphically illustrates the ability of lacritin polypeptides to block TNFα induced caspase-8 activity in human corneal epithelial cells. The ordinate represents relative fluorescence units. White bars indicate 1 hour and diagonally-hatched bars indicate 6 hours.
as §2

CCCCCCCCCCCCCC(=O)O[C@@H]1[C@@H](C)[C@@]2(O)[C@@H](C=C(CO)C[C@]3(O)C(=O)C(C)=C[C@@H]23)[C@@H]2C(C)(C)[C@]12OC(C)=O [4β-phorbol 12-myristate 13-acetate, reference compound]
PKCα translocation ([1]; 15 min after treatment): concentrated PKCα solely in the plasma membrane
effect on PKCα phosphorylation [2]: hyperphosphorylation

O=C(O)CN(CCOCCOCCN(CC(=O)O)CC(=O)O)CC(=O)O [EGTA]
effect on lacritin-dependent NFATC1 translocation [3]: non-inhibitory

COc1ccc2c(c1)CC[C@@H]1[C@@H]2CC[C@]2(C)[C@@H](NCCCCCCN3C(=O)C=CC3=O)CC[C@@H]12 [U73122]
effect on lacritin-dependent PKCα translocation [1]: inhibited
effect on carbachol-stimulated calcium mobilization ([4]; U73122 1 μM, Go 6976 1 μM, even at 10 μM): inhibited
effect on lacritin-stimulated calcium mobilization ([4]; U73122 1 μM, Go 6976 1 μM): inhibited
effect on lacritin-dependent PKCα dephosphorylation [2]: inhibited
effect on lacritin-dependent NFATC1 translocation [3]: inhibited

COc1ccc2c(c1)CC[C@@H]1[C@@H]2CC[C@]2(C)[C@@H](NCCCCCCN3C(=O)CCC3=O)CC[C@@H]12 [U73343]
effect on lacritin-dependent PKCα translocation [1]: full translocation and dephosphorylation
effect on lacritin-dependent PKCα dephosphorylation [2]: full translocation and dephosphorylation

C[N+](C)(C)CCOC(N)=O [carbachol]
calcium mobilization after pertussis toxin preincubation ([4]; positive control replacing lacritin): full calcium mobilization

[Gd] [gadolinium]
effect on lacritin-dependent NFATC1 translocation [3]: non-inhibitory

C/C=C(/C)C(=O)O[C@H]1C(C)=C2[C@H]([C@@H]1OC(=O)CCCCCCC)[C@@](C)(OC(C)=O)C[C@H](OC(=O)CCC)[C@@]1(O)[C@H]2OC(=O)[C@@]1(C)O [thapsigargin]
effect on lacritin-dependent PKCα translocation [1]: inhibited
effect on lacritin-dependent NFATC1 translocation [3]: inhibited

C-59: deletion of the 59 carboxy terminal amino acids of mature lacritin (SEQ ID NO:10) (EDASSDSTGADPAQEAGTSKPNEEISGPAEPASPPETTTTAQETSAAAVQGTAKVTSSRQ; homo sapiens)
mitogenic activity of deletion constructs [5]: inactive

TNF-α [reference compound]
increase in caspase-9 activity ([6]; TNF-α alone): multifold increase
TNF-α-induced cell death ([7]; after 18 hr): 32.2±2.6%
TNF-α-induced cell death ([7]; after 30 hr): 73.7±10%
increase in caspase-8 activity ([8]; TNF-α alone): three-fold increase; also recorded: multifold increase

pertussis toxin
effect on lacritin-dependent PKCα translocation [1]: inhibited
effect on lacritin-stimulated calcium mobilization ([4]; U73122 1 μM, Go 6976 1 μM): completely inhibited
effect on lacritin-dependent PKCα dephosphorylation [2]: inhibited
effect on lacritin-dependent NFATC1 translocation [3]: inhibited

B1: C-15: deletion of the 15 carboxy terminal amino acids of mature lacritin (SEQ ID NO:10) (protein)
chain: EDASSDSTGADPAQEAGTSKPNEEISGPAEPASPPETTTTAQETSAAAVQGTAKVTSSRQELNPLKSIVEKSILLTEQALAKAGKGMHGGVPGGKQFIENGSEF
modifications: homo sapiens
mitogenic activity of deletion constructs [5]: diminished; also recorded: partially active

B2: C-20: deletion of the 20 carboxy terminal amino acids of mature lacritin (SEQ ID NO:10) (protein)
chain: EDASSDSTGADPAQEAGTSKPNEEISGPAEPASPPETTTTAQETSAAAVQGTAKVTSSRQELNPLKSIVEKSILLTEQALAKAGKGMHGGVPGGKQFIE
modifications: homo sapiens
mitogenic activity of deletion constructs [5]: completely abrogated activity; also recorded: inactive

B3: C-10: deletion of the 10 carboxy terminal amino acids of mature lacritin (SEQ ID NO:10) (protein)
chain: EDASSDSTGADPAQEAGTSKPNEEISGPAEPASPPETTTTAQETSAAAVQGTAKVTSSRQELNPLKSIVEKSILLTEQALAKAGKGMHGGVPGGKQFIENGSEFAQKLL
modifications: homo sapiens
effect on TNF-α-induced caspase-9 activity ([6]; lacritin polypeptides 10 nM): blocked
mitogenic activity of deletion constructs [5]: active
effect on TNF-α-induced caspase-8 activity [8]: blocked
